US5462861A, “Method for improving enzyme activities with noble gases” (American Air Liquide, Chicago Research Center, priority 1993, dated 1995)

Legend:
[1] = tested on: isomerase enzymes; test: Isomerases, effects for the class; format: biochemical
Method: Solution preparation: Optimized w/v solutions are prepared by diluting the enzyme (units/ml) and the substrate (μg/ml) in appropriate buffer (optimized pH and molarity for enzymes). The solutions are used for gas experiments at once to avoid loss of activity. Various enzyme and substrate concentrations and inhibitors may be employed. Physical parameters are varied as required.
Preparation of samples: Cuvets are filled with 2 ml of substrate solution by means of a gas-tight syringe. Gas-tight serum vials are filled with enzyme and solvent. Sufficient gas is consecutively bubbled in the cuvets and serum vials, with a 1-hr wait between injections to maximize equilibration of gas. […] The amount of gas used has been measured sufficient to saturate the solution required.
Spectrophotometric time-drive, reaction rate, and kinetic analyses: cuvets and serum vials are saturated with gas 40 minutes before the run. […] Changes in the rate or final equilibrium of the reaction versus ambient air are recorded. […]
In a complete experiment, an enzyme at optimal pH and buffering salt concentration is reacted with 5 substrate concentrations in solution with noble gas at 1 atm. […] The reaction is monitored colorimetrically in a scanning spectrophotometer in real time, and the signals are treated mathematically to obtain rate and yield differences. […]

[2] = tested on: particulate sialidase; details: Sandhoff et al, FEBS Letters 1976; cited from earlier work
[3] = tested on: β-glucosidase; test: Kinetic analyses, β-glucosidase; format: biochemical; parameters: Rates G5 / Rates G5, Calculated: unit not given beside the values
Method: (§1) Absorbance curve data as previously exemplified reveal differences in enzymatic activity under different gas atmospheres both in terms of yield and in terms of rate. Yield can be calculated after equilibrium is reached by comparative curve differencing, and through formal linearization and calculation--which are also necessary for rate calculations. Rate differences are calculated using commercially available computer programs (ENZFITTER, GRAFIT, ENZPACK, PEAKFIT) which transform the initial uv/vis absorbance data curve (in these examples, a power curve) into straight lines (linear regression of power curve). These lines may be expressed as a mathematical equation in which the slope is approximately the rate, and the limit Y-intercept is approximately the yield. […] The examples and figures described below represent these steps in exemplary form.
Table 1 illustrates Michaelis-Menten enzyme kinetics calculations of Vmax and Km, and the rates for each reaction. Vmax is the limiting rate, Km is the Michaelis-Menten constant.
FIG. 46 and Table 2 illustrate the same as FIG. 45 and Table 1, however, for xenon reactions. It is readily apparent that the Vmax and Km for xenon are larger.
FIG. 47, Table 3, FIG. 48 and Table 4 illustrate the first-order power curve regression rate linear transformations for the above air and xenon gassed reactions, showing an approximation to the Michaelis-Menten data, wherein the Xe/Air rate relationship is in the same ratio as above.
FIG. 49, FIG. 50 and Table 5 illustrate the same first-order rate approximation regression linearizations for all gases studied in this run.

[4] = tested on: tyrosinase; test: Kinetic analyses, tyrosinase; format: biochemical
Method: as §1
FIG. 51, Table 6, FIG. 52 and Table 7 illustrate data from the first 160 seconds of a single tyrosinase experiment expressed as power curves for air, then for xenon gassing.

[5] = target: T1, β-D-Glucosidase (Caldicellulosiruptor saccharolyticus, UniProt P10482); test: Immobilized enzymes: β-D-glucosidase under air or xenon; format: biochemical, Caldocellum saccharolyticum; details: 25° C., FIG. 44
T1 construct: purchased Sigma G-0898; host or cells: E. coli
Method: Theory: Same gases effects on either free or immobilized enzymes.
β-D-Glucosidase (SIGMA) No. G-0898)
From Caldocellum saccharolyticum: Recombinant (pfs)
Soln C1: β-D-Glucosidase solution in Na Phos. buffer pH 6.6 (25 ° C.) (2.18 Units/ml)
(For insoluble enzymes lyophilized powders, SIGMA recommends to suspend the required amount to 5-10 mg solid/ml H2 O and to allow brief hydration). We allowed a brief hydration (until solution appears)
Sample: 2 ml Soln B+0.5 ml Soln C1
CPRG: β-Glucosidase: 25° C.

[6] = 1st order rate equation, [S] = 60 micrograms/ml, Table 4

T1 sequence (P10482 whole entry): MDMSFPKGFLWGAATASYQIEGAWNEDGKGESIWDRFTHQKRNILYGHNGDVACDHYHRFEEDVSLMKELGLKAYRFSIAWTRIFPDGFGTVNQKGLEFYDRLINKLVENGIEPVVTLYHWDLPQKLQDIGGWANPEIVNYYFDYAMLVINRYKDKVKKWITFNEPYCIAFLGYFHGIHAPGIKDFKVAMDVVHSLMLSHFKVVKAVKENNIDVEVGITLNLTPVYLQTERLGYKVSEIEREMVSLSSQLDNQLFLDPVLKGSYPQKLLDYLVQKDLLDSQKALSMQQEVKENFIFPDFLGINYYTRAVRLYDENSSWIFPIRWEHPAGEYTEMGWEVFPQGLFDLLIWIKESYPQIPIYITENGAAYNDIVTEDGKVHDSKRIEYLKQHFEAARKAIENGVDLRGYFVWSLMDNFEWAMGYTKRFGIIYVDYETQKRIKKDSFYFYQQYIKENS

[Ar] [Ar, argon]
effect on isomerases [1]: can be induced to inhibit enzyme activity at higher temperatures

[Xe] [Xe, xenon]
effect on activity of particulate sialidase [2]: enhance the activity
Vmax and Km compared with air [3]: larger
Limit [3, 6]: 0.8382
Rate constant [3, 6]: 0.0045
V max ([3]; Michaelis-Menten, Gas 5: Xenon, Table 2): 0.0028
Rates G5 ([3]; [S] 20.0000): 0.0032
Rates G5, Calculated ([3]; [S] 20.0000): 0.0032
Rates G5 ([3]; [S] 40.0000): 0.0029
Rates G5, Calculated ([3]; [S] 40.0000): 0.0029
Rates G5 ([3]; [S] 60.0000): 0.0027
Rates G5, Calculated ([3]; [S] 60.0000): 0.0029
Rates G5 ([3]; [S] 80.0000): 0.0030
Rates G5, Calculated ([3]; [S] 80.0000): 0.0029
Rates G5 ([3]; [S] 100.0000): 0.0029
Rates G5, Calculated ([3]; [S] 100.0000): 0.0028
effect on β-glucosidase reaction ([3]; power curve analysis / linearization, FIGS. 49 and 50): significant enhancement
V max ([4]; Michaelis-Menten, Gas 5: Xenon, Table 7, first 160 seconds): 0.0001
Y, Calculated ([4]; [S] 10.0000): -0.0001
Y, Gas 5: Xenon (rate) ([4]; [S] 10.0000): 0.0007
Y, Calculated ([4]; [S] 20.0000): -0.0003
Y, Gas 5: Xenon (rate) ([4]; [S] 20.0000): 0.0019
Y, Calculated ([4]; [S] 30.0000): 0.0017
Y, Gas 5: Xenon (rate) ([4]; [S] 30.0000): 0.0019
Y, Calculated ([4]; [S] 40.0000): 0.0004
Y, Gas 5: Xenon (rate) ([4]; [S] 40.0000): 0.0019
Y, Calculated ([4]; [S] 50.0000): 0.0003
Y, Gas 5: Xenon (rate) ([4]; [S] 50.0000): 0.0004
effect on tyrosinase activity ([4]; linearized rate regression and Michaelis-Menten calculations): strongly inhibiting tyrosinase activity
effect on β-glucosidase in immobilized form [5]: enhancing
